According to ChEMBL document CHEMBL1201862, “PubChem BioAssay data set” (2004):
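Values below derive from 48-hour exposures of cells grown in 96-well plates, with endpoints linearly interpolated between the two concentrations bracketing the appropriate inhibition level. GI50 = concentration required for 50% inhibition of growth.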 Calls of active or inactive are those of the source. Cut-off read from the data, not from the text of the source: active = GI50 up to about 1.1 µM and inactive = higher. Square brackets hold non-standard residues; d marks the D form. Peptide text beside a SMILES is read from it.

What was measured:
Assay in all cases: NCI anticancer screen, dose series, 48 h
[1] = tested on: EKVX
[2] = tested on: M19-MEL
[3] = tested on: PC-3
[4] = tested on: SK-MEL-5
[5] = tested on: DMS-114
[6] = tested on: COLO 205
[7] = tested on: MCF7
[8] = tested on: SF-268
[9] = tested on: KM-20L2
[10] = tested on: M14
[11] = tested on: SNB-19
[12] = tested on: CCRF-CEM
[13] = tested on: HOP-18
[14] = tested on: NCI-H522
[15] = tested on: HOP-62
[16] = tested on: MDA-MB-231
[17] = tested on: HOP-92
[18] = tested on: NCI-H460
[19] = tested on: OVCAR-4
[20] = tested on: NCI-H23

Measured: GI50

CC(C)Cc1ccc(C(C)/C=C2\CCC(CN3CCOCC3)C2=O)cc1 (configuration not stated)
inactive: [1] 18 µM | [2] 10.2 µM | [3] 12.3 µM | [4] 10.4 µM | [5] 13.4 µM | [6] 9.44 µM | [7] 4.31 µM | [8] 6.87 µM | [9] 16.3 µM | [10] 5.02 µM | [11] 8.51 µM | [12] 1.3 µM | [13] 7.87 µM | [14] 5.62 µM | [15] 11.7 µM | [16] 1.73 µM | [17] 15.5 µM | [18] 14.8 µM | [19] 17.7 µM | [20] 12.9 µM

Cc1cc(Cl)ccc1NC(=O)CC1SC(Nc2ccccc2Cl)=NC1=O (configuration not stated)
inactive: [1] 73.3 µM | [2] 38.9 µM | [4] 36.6 µM | [5] 21.1 µM | [6] 19.2 µM | [8] 39 µM | [9] 26.8 µM | [10] 49.2 µM | [11] 32.4 µM | [12] 29.6 µM | [13] > 100 µM | [14] 29.8 µM | [15] > 100 µM | [17] 48.9 µM | [18] 51.3 µM | [19] 41.3 µM | [20] 38.6 µM

CC(C)C[C@H](NC(=O)[C@H](CC(C)C)NC(=O)[C@@H](Cc1c[nH]c2ccccc12)NC(=O)[C@H](Cc1ccccc1)NC(=O)[C@@H](Cc1c[nH]c2ccccc12)NC(=O)[C@H](CCC(N)=O)NC(=O)[C@@H](CCC(N)=O)NC(=O)[C@@H]1CCCN1C(=O)[C@@H](CCCCN)NC(=O)[C@H]1CCCN1C(=O)[C@H](N)CCCN=C(N)N)C(N)=O (H-[dR][dP][dK]P[dQ]Q[dW]F[dW]LL-NH2)
inactive: [1] > 100 µM | [2] > 100 µM | [4] > 100 µM | [5] > 100 µM | [6] > 100 µM | [7] > 100 µM | [8] > 100 µM | [9] > 100 µM | [11] 44.9 µM | [12] > 100 µM | [13] > 100 µM | [14] > 100 µM | [15] > 100 µM | [17] > 100 µM | [18] 64.7 µM | [19] > 100 µM | [20] > 100 µM

O=C(CCN(C(=O)O)S(=O)(=O)c1ccc(NC(=O)c2ccccc2)cc1)Nc1ccccc1
inactive: [1] > 100 µM | [2] > 76.9 µM | [4] > 100 µM | [5] > 56 µM | [6] > 61.4 µM | [8] > 100 µM | [9] > 100 µM | [10] > 100 µM | [11] > 100 µM | [12] > 61.7 µM | [13] > 17.1 µM | [14] > 100 µM | [15] > 100 µM | [17] > 100 µM | [18] > 61.9 µM | [19] > 100 µM | [20] > 100 µM

O=C(NC/C=C/CO)c1ccccc1
inactive: [1] > 100 µM | [2] > 100 µM | [4] > 100 µM | [5] > 100 µM | [6] > 100 µM | [7] > 100 µM | [8] > 100 µM | [9] > 100 µM | [11] > 100 µM | [12] > 100 µM | [13] > 100 µM | [14] > 100 µM | [15] > 100 µM | [18] > 100 µM | [19] > 100 µM | [20] > 100 µM
